We go through 44 compounds from patent publication US20230348426A1, “OXOPYRROLIDINE FPR2 AGONISTS” (Bristol-Myers Squibb Company, priority 2020, published 2023).

One test concerns the target human FPR2 (Homo sapiens (Human), UniProt P25090). Kind of test: FPR2 cyclic adenosine monophosphate (cAMP) assay. It is filed as cell-based. The following applies: CHO cells overexpressing human FPR2; forskolin 5 µM; inhibition of cAMP production; read-out: hFPR2 cAMP2 EC50. The gist of the method:
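Inhibition of forskolin-driven (5 µM) cAMP, with 200 µM IBMX, measured in human FPR2-expressing CHO cells, 2,000 per well, 30 min at room temperature; compounds tested 0.020 nM to 100 µM in 1% DMSO. HTRF 665/590 ratio converted to cAMP via calibration curve, then 4-parameter fit.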
(Changes in cAMP serve as a functional read-out for many G protein-coupled receptors.)

The next test concerns the target human FPR1 (Homo sapiens (Human), UniProt P21462). Kind of test: FPR1 cyclic adenosine monophosphate (cAMP) assay. It counts as cell-based. Particulars: CHO cells overexpressing human FPR1; forskolin 10 µM; inhibition of cAMP production; read-out: hFPR1 cAMP EC50. The gist of the method: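 Human FPR1-expressing CHO cells were used at 4,000 per well, with compound at 0.020 nM–100 µM in 1% DMSO. Potency came from a 4-parameter logistic fit.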

Chain of human FPR2 (P25090 whole entry): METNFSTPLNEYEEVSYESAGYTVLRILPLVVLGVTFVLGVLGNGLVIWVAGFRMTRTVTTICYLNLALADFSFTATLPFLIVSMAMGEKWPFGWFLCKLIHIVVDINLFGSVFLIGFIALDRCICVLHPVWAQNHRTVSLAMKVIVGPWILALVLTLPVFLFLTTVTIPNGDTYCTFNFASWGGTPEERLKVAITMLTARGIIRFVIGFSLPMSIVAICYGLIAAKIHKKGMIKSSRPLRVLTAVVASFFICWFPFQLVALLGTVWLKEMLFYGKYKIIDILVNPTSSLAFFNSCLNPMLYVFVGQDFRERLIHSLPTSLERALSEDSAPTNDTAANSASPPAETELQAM
Chain of human FPR1 (P21462 whole entry): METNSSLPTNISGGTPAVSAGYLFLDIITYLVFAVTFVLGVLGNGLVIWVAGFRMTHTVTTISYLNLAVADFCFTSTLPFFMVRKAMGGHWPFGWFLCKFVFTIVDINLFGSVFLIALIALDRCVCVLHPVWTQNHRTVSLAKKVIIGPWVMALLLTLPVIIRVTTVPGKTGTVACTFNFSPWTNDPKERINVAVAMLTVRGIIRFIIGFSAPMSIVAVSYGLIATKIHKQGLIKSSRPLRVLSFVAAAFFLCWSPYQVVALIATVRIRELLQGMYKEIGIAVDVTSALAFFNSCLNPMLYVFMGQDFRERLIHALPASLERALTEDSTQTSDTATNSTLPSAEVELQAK

The EC50 is the concentration at which the effect is half-maximal. Take `COCCn1cccc(N2C(=O)[C@@H](NC(=O)c3ccc(OC(F)F)cc3)[C@H](c3c(F)cc(OC)cc3F)[C@@H]2C)c1=O` [Example 105]: the figures for the EC50 on human FPR2 and on human FPR1 were 2.9 nM and 65 nM, respectively.

Regarding `COc1cc(NCCO)nc(N2C[C@@H](c3c(F)cc(OC)cc3F)[C@H](NC(=O)c3ccc(Cl)cc3)C2=O)c1` [Example 106], the EC50 on human FPR2 is 2.9 nM; at human FPR1 it was 870 nM.

Turning to `COCCn1cccc(N2C[C@@H](c3ccc(Cl)cc3)[C@H](NC(=O)c3ccc(OC(F)(F)F)cc3)C2=O)c1=O` [Example 107], the results for the EC50 at human FPR2 and at human FPR1 were 2.9 nM and 5.7 nM, respectively.

As to `COc1ccc([C@@H]2CN(c3c(C)ccn(CCO)c3=O)C(=O)[C@H]2NC(=O)c2ccc(OC(F)(F)F)cc2)cc1` [Example 108], the figures for the EC50 at human FPR2 and on human FPR1 were 2.9 nM and 0.4 nM, respectively.

In the case of `COc1cc(F)c([C@@H]2CN(c3nccc(N4C[C@@H](C)N(C)[C@@H](C)C4)c3C(F)(F)F)C(=O)[C@H]2NC(=O)c2ccc(OC(F)F)cc2)c(F)c1` [Example 109], the EC50 amounted to 2.9 nM at human FPR2 and 500 nM at human FPR1.

As for `O=C(N[C@@H]1C(=O)N(c2cccn(CCO)c2=O)C[C@H]1c1ccc(Cl)cc1)c1ccc(OC(F)F)cc1` [Example 110], the EC50 on human FPR2 was found to be 2.9 nM; on human FPR1 it was 20 nM.

In the case of `COc1cc(F)c([C@@H]2CN(c3nc(C)ccc3F)C(=O)[C@H]2NC(=O)c2ccc(Cl)cc2)c(F)c1` [Example 111], the EC50 at human FPR2 is 3 nM; on human FPR1, 1100 nM.

On to `COCC(CO)n1ccc(C)c(N2C[C@@H](c3c(F)cc(OC)cc3F)[C@H](NC(=O)c3ccc(OC(F)F)cc3)C2=O)c1=O` (stereo partly shown) [Example 112], for which the EC50 was 3 nM at human FPR2 and 2.8 nM on human FPR1.

`COCCn1cccc(N2C[C@@H](c3c(F)cc(OC)cc3F)[C@H](NC(=O)c3ccc(OC(F)F)cc3)C2=O)c1=O` [Example 113]: the EC50 came out at 3 nM at human FPR2 and 16 nM on human FPR1.

Take `COc1cc(F)c([C@@H]2CN(c3nc(N(C)C(C)=O)ccc3F)C(=O)[C@H]2NC(=O)c2ccc(OC(F)(F)F)cc2)c(F)c1` [Example 114]: the EC50 at human FPR2 was 3 nM; at human FPR1, 5.9 nM.

For `COc1cc(F)c([C@@H]2CN(c3c(C)ccn(CCO)c3=O)C(=O)[C@H]2NC(=O)c2ccc(OC(F)(F)F)cc2)c(F)c1` [Example 115], the EC50 at human FPR2 is 3.1 nM; on human FPR1 it was 2.4 nM.

As to `COc1cc(F)c([C@@H]2CN(c3cccn(C4CC4)c3=O)C(=O)[C@H]2NC(=O)c2ccc(C(F)(F)F)cc2)c(F)c1` [Example 116], the EC50 at human FPR2 came to 3.1 nM; on human FPR1, 34 nM.

For the compound `COc1cc(F)c([C@@H]2CN(c3nc(N4CC(F)(F)C4)ccc3F)C(=O)[C@H]2NC(=O)c2ccc(OC(F)F)cc2)c(F)c1` [Example 117], the EC50 was 3.1 nM at human FPR2 and 210 nM at human FPR1.

In the case of `COCC(CO)n1cccc(N2C[C@@H](c3ccc(Cl)cc3)[C@H](NC(=O)c3ccc(OC(F)F)cc3)C2=O)c1=O` (stereo partly shown) [Example 118], the EC50 turned out to be 3.1 nM on human FPR2 and 4.1 nM at human FPR1.

For the compound `COc1cc(F)c([C@@H]2CN(c3nc(N4C(=O)C5CCCC54)ccc3F)C(=O)[C@H]2NC(=O)c2ccc(OC(F)F)cc2)c(F)c1` (stereo partly shown) [Example 119], the figures for the EC50 at human FPR2 and at human FPR1 were 3.1 nM and 67 nM, respectively.

Take `COc1ccc([C@@H]2CN(c3cccn(CC(F)F)c3=O)C(=O)[C@H]2NC(=O)c2ccc(OC(F)(F)F)cc2)cc1` [Example 120]: the results for the EC50 at human FPR2 and at human FPR1 were 3.1 nM and 13 nM, respectively.

In the case of `COc1ccc([C@@H]2CN(c3c(C)ccn(CC(F)F)c3=O)C(=O)[C@H]2NC(=O)c2ccc(OC(F)(F)F)cc2)cc1` [Example 121], the EC50 at human FPR2 was 3.1 nM; on human FPR1 it was 1.4 nM.

Consider `COc1cc(F)c([C@@H]2CN(c3nc(NC4CCOC4)ccc3F)C(=O)[C@H]2NC(=O)c2ccc(OC(F)F)cc2)c(F)c1` (stereo partly shown) [Example 122], for which the EC50 was 3.2 nM on human FPR2 and 1080 nM at human FPR1.

As to `COc1cc(F)c([C@@H]2CN(c3cccnc3OC(F)F)C(=O)[C@H]2NC(=O)c2ccc(Cl)cc2)c(F)c1` [Example 123], the figures for the half-maximal effective concentration (EC50) on human FPR2 and at human FPR1 were 3.2 nM and 41 nM, respectively.

`COc1cc(F)c([C@@H]2CN(c3nc(N4CC(C)OCC4=O)ccc3F)C(=O)[C@H]2NC(=O)c2ccc(OC(F)(F)F)cc2)c(F)c1` (stereo partly shown) [Example 124]: the results for the EC50 at human FPR2 and on human FPR1 were 3.3 nM and 47 nM, respectively.

For the compound `COc1cc(F)c([C@@H]2CN(c3nccc(NC4CCOC4)c3C(F)(F)F)C(=O)[C@H]2NC(=O)c2ccc(Cl)cc2)c(F)c1` (stereo partly shown) [Example 125], the concentration giving a half-maximal response (EC50) amounted to 3.3 nM at human FPR2 and 1100 nM at human FPR1.

On to `COc1cc(F)c([C@H]2[C@H](NC(=O)c3ccc(OC(F)F)cc3)C(=O)N(c3ncccc3OC(C)C)[C@H]2C)c(F)c1` [Example 126], for which the figures for the EC50 at human FPR2 and on human FPR1 were 3.3 nM and 2300 nM, respectively.

Regarding `COCCn1cccc(N2C(=O)[C@@H](NC(=O)c3ccc(OC(F)F)cc3)[C@H](c3c(F)cc(OC)cc3F)[C@H]2C)c1=O` [Example 127], the EC50 on human FPR2 came out at 3.3 nM; on human FPR1, 390 nM.

For the compound `CCn1cccc(N2C[C@@H](c3ccc(OC)cc3)[C@H](NC(=O)c3ccc(OC(F)(F)F)cc3)C2=O)c1=O` [Example 128], the figures for the EC50 at human FPR2 and at human FPR1 were 3.3 nM and 6.3 nM, respectively.

In the case of `COc1cc(F)c([C@@H]2CN(c3nccc(NCC(C)O)c3C(F)(F)F)C(=O)[C@H]2NC(=O)c2ccc(OC(F)F)cc2)c(F)c1` (stereo partly shown) [Example 129], the EC50 on human FPR2 stood at 3.3 nM; at human FPR1, 380 nM.

In the case of `COc1cc(F)c([C@@H]2CN(c3cccn(CCO)c3=O)C(=O)[C@H]2NC(=O)c2ccc(Cl)cc2)c(F)c1` [Example 130], the EC50 on human FPR2 is 3.4 nM; on human FPR1, 340 nM.

Consider `COCC(C(=O)N1CCOCC1)n1ccc(C)c(N2C[C@@H](c3c(F)cc(OC)cc3F)[C@H](NC(=O)c3ccc(OC(F)F)cc3)C2=O)c1=O` (stereo partly shown) [Example 131], for which the EC50 at human FPR2 is 3.4 nM; on human FPR1, 0.8 nM.

As to `COc1ccc([C@@H]2CN(c3c(C)ccn(C4CCOC4)c3=O)C(=O)[C@H]2NC(=O)c2ccc(OC(F)(F)F)cc2)cc1` (stereo partly shown) [Example 132], the EC50 was determined as 3.4 nM on human FPR2 and 0.8 nM on human FPR1.

`COCC(CO)n1cccc(N2C[C@@H](c3c(F)cc(OC)cc3F)[C@H](NC(=O)c3ccc(OC(F)F)cc3)C2=O)c1=O` (stereo partly shown) [Example 133]: the EC50 was found to be 3.4 nM at human FPR2 and 12 nM at human FPR1.

As to `COCC(C(=O)N(C)C)n1cccc(N2C[C@@H](c3c(F)cc(OC)cc3F)[C@H](NC(=O)c3ccc(OC(F)(F)F)cc3)C2=O)c1=O` (stereo partly shown) [Example 134], the EC50 on human FPR2 was 3.5 nM; on human FPR1 it was 1.6 nM.

Turning to `COc1cc(F)c([C@@H]2CN(c3nc(N4CCC(O)C4=O)ccc3F)C(=O)[C@H]2NC(=O)c2ccc(OC(F)F)cc2)c(F)c1` (stereo partly shown) [Example 135], the EC50 at human FPR2 worked out at 3.5 nM; at human FPR1 it was 58 nM.

With `COCC(CO)n1cccc(N2C[C@@H](c3ccc(OC)cc3)[C@H](NC(=O)c3ccc(OC(F)(F)F)cc3)C2=O)c1=O` (stereo partly shown) [Example 136], the EC50 came out at 3.5 nM at human FPR2 and 2.2 nM at human FPR1.

As to `COCCn1cccc(N2C[C@@H](c3c(F)cc(OC)cc3F)[C@H](NC(=O)c3ccc(Cl)cc3)C2=O)c1=O` [Example 137], the EC50 was 3.5 nM on human FPR2 and 190 nM on human FPR1.

`COc1cc(F)c([C@@H]2CN(c3cccn(CC(C)OC)c3=O)C(=O)[C@H]2NC(=O)c2ccc(OC(F)(F)F)cc2)c(F)c1` (stereo partly shown) [Example 138]: the EC50 on human FPR2 was found to be 3.5 nM; at human FPR1, 1.7 nM.

On to `COc1cc(F)c([C@@H]2CN(c3ccc(CO)[nH]c3=O)C(=O)[C@H]2NC(=O)c2ccc(OC(F)F)cc2)c(F)c1` [Example 139], for which the EC50 is 3.5 nM at human FPR2 and 570 nM on human FPR1.

Consider `COc1cc(F)c([C@@H]2CN(c3ccc(C)n(C)c3=O)C(=O)[C@H]2NC(=O)c2ccc(Cl)cc2)c(F)c1` [Example 140], for which the EC50 at human FPR2 stood at 3.5 nM; on human FPR1 it was 610 nM.

Consider `COc1cc(F)c([C@@H]2CN(c3cccn(CC(C)O)c3=O)C(=O)[C@H]2NC(=O)c2ccc(OC(F)F)cc2)c(F)c1` (stereo partly shown) [Example 141], for which the results for the EC50 on human FPR2 and at human FPR1 were 3.6 nM and 29 nM, respectively.

`COCC(CO)n1cccc(N2C[C@@H](c3c(F)cc(OC)cc3F)[C@H](NC(=O)c3ccc(OC(F)F)cc3)C2=O)c1=O` (stereo partly shown) [Example 142]: the EC50 is 3.6 nM on human FPR2 and 87 nM on human FPR1.

As to `COc1ccc([C@@H]2CN(c3cccn(CCO)c3=O)C(=O)[C@H]2NC(=O)c2ccc(OC(F)F)cc2)c(F)c1` [Example 143], the results for the EC50 at human FPR2 and on human FPR1 were 3.6 nM and 53 nM, respectively.

In the case of `COCC(CO)n1cccc(N2C[C@@H](c3c(F)cc(OC)cc3F)[C@H](NC(=O)c3ccc(OC(F)(F)F)cc3)C2=O)c1=O` (stereo partly shown) [Example 144], the values for the EC50 at human FPR2 and on human FPR1 were 3.6 nM and 23.1 nM, respectively.

Take `COc1cc(F)c([C@@H]2CN(c3cccn(CC(F)F)c3=O)C(=O)[C@H]2NC(=O)c2ccc(OC(F)F)cc2)c(F)c1` [Example 145]: the concentration giving a half-maximal response (EC50) came to 3.7 nM at human FPR2 and 8.2 nM on human FPR1.

As to `COc1cc(F)c([C@@H]2CN(c3nc(NC(C)=O)ccc3F)C(=O)[C@H]2NC(=O)c2ccc(OC(F)F)cc2)c(F)c1` [Example 146], the EC50 at human FPR2 amounted to 3.8 nM; at human FPR1, 150 nM.

Regarding `COc1cc(F)c([C@@H]2CN(c3cccn(CC(OC)C(F)(F)F)c3=O)C(=O)[C@H]2NC(=O)c2ccc(OC(F)(F)F)cc2)c(F)c1` (stereo partly shown) [Example 147], the EC50 was determined as 3.8 nM at human FPR2 and 2.2 nM on human FPR1.

As to `COc1cc(F)c([C@@H]2CN(c3cccn(CC(F)F)c3=O)C(=O)[C@H]2NC(=O)c2ccc(OC(F)(F)F)cc2)c(F)c1` [Example 148], the EC50 at human FPR2 is 3.8 nM; at human FPR1, 19 nM.
